Measurements as given in patent publication US12624039B2, “BTK inhibitors” (DIZAL (JIANGSU) PHARMACEUTICAL CO., LTD., priority 2020, dated 2026).
Converted amounts (≈) assume the structure as drawn. Like-named read-outs stand apart in the source and are kept apart here.

Key:
[1] = Protein binding in human plasma by equilibrium dialysis; format: in vitro ADME; details: 18 hours at 37° C.; for fraction unbound at 18 h, 5 μM: human, plasma, pH 7.4, human plasma, read-out: hPPB (fu %); for hPPB (fu %): human plasma, 5 μM, fraction unbound
Description: (§1) [formula] DF means the dilution factor. Procedure for Protein Binding Measurements in Human Plasma by Using Equilibrium Dialysis
Add 597 μL of blank plasma into each vial of a new plastic plate or separate plastic tube by addition of 3 μL of the working solution of each cassette, vortex at 1,000 rpm for 5 minutes. The final percent volume of organic solvent is 0.5% and the final concentration for test compound is 5 μM. Immediately transfer 50 μL of the spiked plasma suspension to a 96-well plate to act as T=0 control sample. The samples are treated the same as the samples after incubation. Place all remaining spiked plasma in the incubator for the duration of the study.
Place inserts open end up into the wells of the base plate. Add 500 μL of phosphate buffer (pH 7.4) to the buffer chamber, which is indicated by the white ring. Add 300 μL of spiked plasma sample into the sample chamber, which is indicated by the red ring. Cover the unit with gas permeable lid and incubate for 18 hours at 37° C. at 300 rpm with 5% CO2 on an orbital shaker in the CO2 incubator. At the end of incubation, remove lid and pipette 50 μL of post-dialysis samples from both buffer and plasma chambers into separated 96-well plate for analysis, respectively.
At the same time, the remaining spiked plasma sample in the plastic plate or separate plastic tube is incubated for 18 hours at 37° C. with 5% CO2 in the CO2 incubator. At T=18 hours, transfer 50 μL of the original spiked plasma suspension to the 96-well plate for analysis.
Add 50 μL of Human plasma to the buffer samples, and an equal volume of PBS to the collected plasma samples. Vortex the plate at 1,000 rpm for 2 minutes and add 400 μL of acetonitrile containing an appropriate internal standard (IS) to precipitate protein and release compound. Vortex at 1,000 rpm for 10 minutes. Centrifuge for 30 minutes at 4,000 rpm. Transfer 250 μl of the supernatant to new 96-well plates and centrifuge again (4,000 rpm, 30 minutes). Then transfer 100 μL of the supernatant to new 96-well plates for analysis. Add 100 μL of distilled water to each sample and vortex for 5 minutes at 1,000 rpm for analysis by LC-MS/MS. All compounds are tested in singlicate at 5 μM in human plasma.
All calculations are carried out using Microsoft Excel.
Calculate the percentage of unbound, percentage of bound and recovery of test compound as follows: […]

[2] = DMSO solubility; format: physicochemical
[3] = In vitro rat hepatocytes clearance assay; format: in vitro ADME
Description: (§2) In Vitro Rat/Human Hepatocytes Clearance Assay
(§3) Rat hepatocytes in male gender and human hepatocytes in mixed gender were obtained from commercial vendors (e.g., BioreclamationIVT) and stored at −150° C. prior to use. 10 mM stock solutions of tested compounds were prepared in DMSO. Thawing medium and supplement incubation medium (serum-free) were placed in a 37° C. water bath for at least 15 minutes prior to use. Stock solutions were diluted to 100 μM by combining 198 μL acetonitrile and 2 μL of 10 mM stock solution.
(§4) Vials of cryopreserved hepatocytes were removed from storage, ensured that vials remain at cryogenic temperatures. The vials were thawed in a 37° C. water bath with gently shaking. Vials were kept in a water bath until all ice crystals had dissolved and were no longer visible. Vials were sprayed with 70% ethanol before being transferred to a biosafety cabinet. And then the contents were poured into the 50 mL thawing medium conical tube. Vials were centrifuged at 100 g for 10 minutes at room temperature. Thawing medium was aspirated and hepatocytes were resuspended with serum-free incubation medium to yield ^˜1.5×10^6 cells/mL.
(§5) Cell viability and density were counted using a Trypan Blue exclusion, and then cells were diluted with serum-free incubation medium to a working cell density of 1×10^6 viable cells/ml. A portion of the hepatocytes at 1×10^6 viable cells/mL was boiled for 10 min prior to adding to the plate as negative control to eliminate the enzymatic activity so that little or no substrate turnover should be observed. The inactivated hepatocytes were used to prepare negative samples, which were used to exclude the misleading factor that resulted from instability of chemical itself.
(§6) Aliquots of 247.5 μL hepatocytes were dispensed into each well of a 96-well non-coated plate. The plate was placed in the incubator on an orbital shaker for approximately 10 minutes. Aliquots of 2.5 μL of the 100 μM test compounds were added into respective wells of the non-coated 96-well plate to start the reaction. This assay was performed in duplicate. The plate was incubated in the incubator on an orbital shaker for the designed time points. 20 μL of contents were transferred and mixed with 6 volumes (120 μL) of cold acetonitrile with internal standard to terminate the reaction at time points of 5, 15, 30, 45, 60, 80 and 100 minutes. Samples were centrifuges for 20 minutes at 4000 g and aliquots of 100 μl of the supernatants were used for LC-MS/MS analysis for measurement of test compounds.
(§7) In vitro hepatocyte clearance was estimated based on determination of elimination half-life (T1/2) of compounds disappearance from their initial concentrations. Peak area ratios of each compound (test or control) to IS was calculated. Ln (% Control) versus Incubation Time (min) curve was plotted, and the slope of a linear fitting line was calculated. Drug elimination rate constant k (min-1), T1/2 (min), and in vitro intrinsic clearance CLint (μL/min/E6) was calculated according to the following equations: k=−slope T1/2=0.693/k CLint=k/Chep • Where Chep (cells×μL-1) is the cell concentration in the incubation system. Procedure for Log D Determination

[4] = Log D determination (octanol/phosphate buffer); format: physicochemical; details: 25° C.
Description: 10 μL of working solution of each cassette is placed in order into respective 96-well rack position (Log D plate). Add 500 μL of saturated octanol into each vial of the above cap-less Log D plate followed by the addition of 500 μL of saturated phosphate buffer. Seal with a moulded PTFE/SIL 96-Well Plate Cover.
The samples are centrifuged at 4,000 rpm at 25° C. for 30 minutes to separate the phases. Pipette and syringe are used to pipette about 100 μL from the octanol and buffer phases to a new 96-well plate, respectively.
5 μL of octanol sample is transferred to a new 96-well plate, followed by addition of 495 μL of a mixture of H2O and acetonitrile containing internal standard (1:1) as 100 fold octanol samples. Vortex for 5 minutes at 1,000 rpm.
50 μL of 100 fold samples are transferred to new 96-well plate, followed by addition of 450 μL of a mixture of H2O and acetonitrile containing internal standard (1:1) as 1,000 fold octanol samples. Vortex for 5 minutes at 1,000 rpm.
The 1,000 folds octanol samples are serially diluted into 10,000, 100,000 and 1,000,000 folds with a mixture of H2O and acetonitrile containing internal standard (1:1).
50 μL of buffer samples are transferred to new 96-well plate, followed by addition of 450 μL of a mixture of H2O and acetonitrile containing internal standard (1:1) as 10 folds buffer samples. Vortex for 5 minutes at 1,000 rpm.
The 10 folds buffer samples are serially diluted into 100, 1,000 and 10,000 folds with a mixture of H2O and acetonitrile containing internal standard (1:1). The samples are evaluated by LC/MS/MS analysis. All compounds are tested in singlicate.
All calculations are carried out using Microsoft Excel. The concentrations of test compound in octanol/buffer solution are evaluated by LC/MS/MS. Calculate the Log D value of the test compound as follows:
as §1

[5] = Hu Mic Clint; format: in vitro ADME, human; details: for microsomal CLint: human, microsomes
[6] = In vitro human hepatocytes clearance assay; format: in vitro ADME
Description: as §2, §3, §4, §5, §6, §7

[7] = molecular target: T1, Recombinant BTK wild type (BTK WT) (Homo sapiens, UniProt Q06187); test: BTK WT HTRF kinase assay; format: biochemical; details: 30 min pre-incubation, 120 min reaction
T1 construct: purchased Thermo fisher
Description: (§8) Recombinant BTK wild type (BTK WT) was purchased from Thermo fisher.
(§9) In brief, recombinant kinases were pre-incubated in the presence or absence of compound at room temperature for 30 minutes. The reaction was initiated by the addition of the ATP and substrate peptide which could be phosphorylated by kinases in the reaction. After 120 minutes incubation, the reaction was stopped by the addition of the detection reagent mix containing EDTA.

[8] = molecular target: T2, Recombinant BTK(C481S) (Homo sapiens, UniProt Q06187, C481S); test: BTK C481S HTRF kinase assay; format: biochemical; details: 30 min pre-incubation, 120 min reaction
T2 construct: purchased SignalChem
Description: [The procedure below names another variant; the source lists this variant under the same test.] as §8, §9

[9] = phase I trial for multiple sclerosis (MS); cited from earlier work

T1 sequence (Q06187 whole entry): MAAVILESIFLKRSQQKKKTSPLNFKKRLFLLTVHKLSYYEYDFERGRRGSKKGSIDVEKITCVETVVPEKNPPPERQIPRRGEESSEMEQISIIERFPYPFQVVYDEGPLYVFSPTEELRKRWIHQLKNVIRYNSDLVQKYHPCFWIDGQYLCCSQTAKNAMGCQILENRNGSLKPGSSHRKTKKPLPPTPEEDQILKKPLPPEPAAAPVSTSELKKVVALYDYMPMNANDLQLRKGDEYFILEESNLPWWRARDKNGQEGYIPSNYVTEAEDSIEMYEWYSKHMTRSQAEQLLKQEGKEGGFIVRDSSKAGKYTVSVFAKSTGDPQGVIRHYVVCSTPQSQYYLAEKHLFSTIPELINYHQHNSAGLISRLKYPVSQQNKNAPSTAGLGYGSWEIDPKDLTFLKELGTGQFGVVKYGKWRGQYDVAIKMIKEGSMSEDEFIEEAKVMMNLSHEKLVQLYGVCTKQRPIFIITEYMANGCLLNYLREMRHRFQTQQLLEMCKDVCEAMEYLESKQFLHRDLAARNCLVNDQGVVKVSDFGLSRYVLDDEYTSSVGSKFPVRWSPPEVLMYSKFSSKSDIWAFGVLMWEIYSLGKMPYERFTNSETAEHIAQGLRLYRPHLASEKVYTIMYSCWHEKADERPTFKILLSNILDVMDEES
T2 sequence (Q06187 whole entry C481S): as the sequence (Q06187 whole entry) above, with C481S counted along it

Row | Compound | fraction unbound at 18 h, 5 μM [1] | solubility ([2]; kinetic from dmso stock) | Rat Hep Clint [3] | logD at 2 h [4] | microsomal CLint [5] | Human Hep Clint [6] | hPPB (fu %) [1] | solubility [2] | IC50 [7] | logD [4] | Hu Mic Clint [5] | IC50 [8] | tolerability [9]
1 | Nc1nccn2c1c(-c1ccc(Oc3ccccc3)cc1)nc2[C@H]1CC[C@H](CO)CC1 [reference compound] | 0.0289 | < 1.6 µM | 119.3 μL/min/10∧6 cells | 4.16 | 141 µL/min/mg | 92.9 μL/min/10∧6 cells | – | – | – | – | – | – | –
2 | Nc1ncnn2c1c(-c1ccc(Oc3ccccc3)cc1F)nc2[C@H]1CC[C@H](CO)CC1 [reference compound] | 0.0257 | < 1.6 µM | 254.9 μL/min/10∧6 cells | 3.98 | 19.3 µL/min/mg | 123.6 μL/min/10∧6 cells | – | – | – | – | – | – | –
3 | Nc1ncnn2c(C3CCC(CO)OC3)nc(-c3ccc(Oc4ccccc4)c(F)c3F)c12 (centres unmarked) [Compound 13, (5-(4-amino-5-(2,3-difluoro-4-phenoxyphenyl)imidazo[5,1-f][1,2,4]triazin-7-yl)tetrahydro-2H-pyran-2-yl)methanol] | – | – | 21.4 μL/min/10∧6 cells | – | – | 5.9 μL/min/10∧6 cells | 8.4% | 113 µM (≈ 51.2 µg/mL) | 3.29 nM | 3.21 | <3 µL/min/mg | 3.81 nM | –
4 | C=CC(=O)N1CCC[C@@H](n2c(=O)n(-c3ccc(Oc4ccccc4)cc3)c3c(N)nccc32)C1 [PRN2246] | – | – | – | – | – | – | – | – | – | – | – | – | well tolerated
5 | Nc1ncnn2c(C3CCC(CO)OC3)nc(-c3ccc(Oc4cccc(F)c4F)cc3)c12 (centres unmarked) [Compound 15, (5-(4-amino-5-(4-(2,3-difluorophenoxy)phenyl)imidazo[5,1-f][1,2,4]triazin-7-yl)tetrahydro-2H-pyran-2-yl)methanol] | – | – | 7.9 μL/min/10∧6 cells | – | – | 2.1 μL/min/10∧6 cells | 6.4% | 84.0 µM (≈ 38.1 µg/mL) | 6.72 nM | 2.98 | <3 µL/min/mg | 6.11 nM | –
